Measured values: US20190038714A1, “ANTI-INFLAMMATORY COMPOSITION COMPRISING CLAVASPIRIN PEPTIDE ANALOGUE AS EFFECTIVE INGREDIENT” (INDUSTRY-ACADEMIC COOPERATION FOUNDATION, CHOSUN UNIVERSITY, priority 2015, published 2019)
Ends that are not written are not given here.

Assays:
S. aureus MRSA 3511 = settings: 24 hours at 37° C.
S. aureus MRSA 4761 = settings: 24 hours at 37° C.
S. aureus MRSA 1635 = settings: 24 hours at 37° C.
[1] = Cytotoxicity in normal cell line (MTT); format: cell-based, human; settings: human, HaCaT cells (keratinocyte cell line), HaCaT, 24 hours, MTT, read-out: Cell survival ability %; for viability at 24 h, 25 µM: peptide 25 μM; for viability at 24 h, 50 µM: peptide 50 μM; for viability at 24 h, 100 µM: peptide 100 μM; for viability at 24 h, 200 µM: peptide 200 μM; for viability at 24 h, 400 µM: peptide 400 μM
Protocol: To determine the cytotoxicity of the peptide produced by the method of Example 1 in normal cell line, toxicity was measured by using human keratinocyte forming cell line (HaCaT cell line, Dr. NE. Fusenig, Heidelberg, Germany).
Specifically, HaCaT cells which have been cultured in DMEM medium containing 10% FBS (Fetal Bovine Serum) were aliquoted in a 96-well plate (3×10^3 cells/well). […] After the culture, a reaction solution containing 5 mg/ml MTT (Thiazolyl Blue Tetrazolium Bromide) dissolved in physiological saline (PBS) was added in an amount of 20 μl to each well and allowed to react for 4 hours. After that, the supernatant was removed, and, by dissolving the formed MTT crystals by adding 200 μl of DMSO, the absorbance at 560 nm was measured to determine the cell survival ability.

S. aureus MRSA 5159 = settings: 24 hours at 37° C.
human erythrocyte = assay: Erythrocyte hemolytic activity; format: cell-based; settings: for Erythrocyte disrupting ability %: 1 hour at 37° C., Triton X-100 = 100%
Protocol: To compare the cytotoxicity among the peptides that are produced by the method of Example 1, erythrocyte hemolytic activity of the synthesized peptide was measured.
Specifically, human erythrocyte was diluted in physiological saline (PBS, pH 7.0) to have concentration of 8%, and clavaspirin, CSP-4, and melittin peptide were serially diluted (i.e., dilution to 1/2 concentration from higher concentration for each dilution) followed by reaction for 1 hour at 37° C. After that, the amount of hemoglobin contained in a supernatant collected by centrifuge at 1,000×g was determined by measuring the absorbance at a wavelength of 414 nm. As a control group to be used as a reference for cell disruption level, the supernatant collected by a treatment with 1% Triton X-100 (Sigma, USA) and a reaction for 1 hour at 37° C. was used for absorbance measurement. By setting the erythrocyte hemolytic activity of Triton X-100 at 100%, the hemolytic activity of the above peptides was calculated using the following mathematical equation 1.
Erythrocyte disrupting ability (hemolysis) (%)=(Absorbance A−Absorbance B)/(Absorbance C−Absorbance B)×100 [Mathematical equation 1]
(in the above equation, Absorbance A indicates the absorbance of a reaction solution treated with each peptide, in which the absorbance is measured at a wavelength of 414 nm; Absorbance B indicates the absorbance of a reaction solution treated with PBS, in which the absorbance is measured at a wavelength of 414 nm; and Absorbance C indicates the absorbance of a reaction solution treated with 1% Triton X-100, in which the absorbance is measured at a wavelength of 414 nm).

S. aureus MRSA 3126 = settings: 24 hours at 37° C.
[2] = system: Bacillus subtilis, KCTC 1918; assay: Growth minimum inhibitory concentration (MIC), microtiter broth dilution; format: cell-based; settings: B. subtilis; 12 hours at 37° C.
Description: (§1) To compare the antimicrobial activity of the peptide produced by the method of Example 1, the inventors of the present invention measured the growth minimum inhibitory concentration (MIC), which is minimum concentration of the peptide showing no dissociation of bacterial cells.
(§2) Specifically, E. coli (Escherichia coli, ATCC 25922), and P. aeruginosa (Pseudomonas aeruginosa, ATCC 15692), S. typhimurium (Salmonella typhimurium, KTCC 1926), and P. vulgaris (Proteus vulgaris, KCTC 2433 as Gram-negative bacteria, and S. aureus (Staphylococcus aureus, ATCC 25923), L. monocytogenes (Listeria monocytogenes, ATCC 19115), B. subtilis (Bacillus subtilis, KCTC 1918), and S. epidermidis (Staphylococcus epidermidis, KCTC 3096) as Gram-positive bacteria were used after obtaining them from American Type Culture Collection (ATCC) or Korean Cell Line Bank. Each bacterial cell line was cultured in LB medium (1% bacto tryptone, 0.5% bacto yeast extract, and 1% sodium chloride; Sigma, USA) to a mid-log phase at pH of 5.5 or 7.4. After that, the cells were diluted in 1% bacto peptone medium (Difco, USA) to have cell body concentration of 5×10^5 cells/100 μl, and then inoculated to a microtiter plate (NUNC, USA). Thereafter, each of CSP-4 peptide synthesized in Example 1 above and the mother peptide was diluted, 1/2 times for each, at pH of 5.5 or 7.4 in a 96-well plate. After adding the cells to the plate, the cells were cultured for 12 hours at 37° C. Then, the absorbance was measured at a wavelength of 620 nm by using a microtiter plate reader (Merck Elisa reader, Germany) to determine the MIC value of each bacterial strain.

[3] = system: Salmonella typhimurium, KTCC 1926; assay: as above; format: cell-based; settings: S. typhimurium; 12 hours at 37° C.
Description: as §1, §2

[4] = system: Escherichia coli, ATCC 25922; assay: as above; format: cell-based; settings: 12 hours at 37° C., pH of 5.5 or 7.4 (not given)
Description: as §1, §2

[5] = system: Listeria monocytogenes, ATCC 19115; assay: as above; format: cell-based; settings: L. monocytogenes; 12 hours at 37° C.
Description: as §1, §2

[6] = system: Pseudomonas aeruginosa, ATCC 15692; assay: as above; format: cell-based; settings: P. aeruginosa; 12 hours at 37° C.
Description: as §1, §2

[7] = system: Proteus vulgaris, KCTC 2433; assay: as above; format: cell-based; settings: P. vulgaris; 12 hours at 37° C.
Description: as §1, §2

[8] = system: Staphylococcus epidermidis, KCTC 3096; assay: as above; format: cell-based; settings: S. epidermidis; 12 hours at 37° C.
Description: as §1, §2

[9] = system: Staphylococcus aureus, ATCC 25923; assay: as above; format: cell-based; settings: S. aureus; 12 hours at 37° C.
Description: as §1, §2

S. aureus MRSA 1630 = settings: 24 hours at 37° C.

Row | Substance | MIC (S. aureus MRSA 3511) | MIC (S. aureus MRSA 4761) | MIC (S. aureus MRSA 1635) | viability at 24 h, 25 µM [1] | viability at 24 h, 50 µM [1] | viability at 24 h, 100 µM [1] | viability at 24 h, 200 µM [1] | viability at 24 h, 400 µM [1] | MIC (S. aureus MRSA 5159) | Erythrocyte disrupting ability % (human erythrocyte; peptide 25 μM) | Erythrocyte disrupting ability % (human erythrocyte; peptide 50 μM) | Erythrocyte disrupting ability % (human erythrocyte; peptide 100 μM) | Erythrocyte disrupting ability % (human erythrocyte; peptide 200 μM) | Erythrocyte disrupting ability % (human erythrocyte; peptide 400 μM) | MIC (S. aureus MRSA 3126) | Growth minimum inhibitory concentration [2] | Growth minimum inhibitory concentration [3] | Growth minimum inhibitory concentration [4] | Growth minimum inhibitory concentration [5] | Growth minimum inhibitory concentration [6] | also measured
1 | FLRFIGSVIHGIGHLVHHIGVAL-NH2 [Clavaspirin] | 8 µM | 32 µM | 16 µM | 15% | 3% | 1% | 1% | 0% | 32 µM | 100% | 100% | 100% | 100% | 100% | 16 µM | 16 µM | 32 µM | 2 µM | 16 µM | 32 µM | Growth minimum inhibitory concentration [7]: 8 µM; Growth minimum inhibitory concentration [8]: 4 µM; Growth minimum inhibitory concentration [9]: 16 µM; MIC (S. aureus MRSA 1630): 8 µM
2 | FLRFIGSVKHGKGHLVHHIGVAL-NH2 [CSP-4] | 8 µM | 8 µM | 8 µM | 100% | 100% | 100% | 100% | 88% | 8 µM | 0% | 0% | 0% | 1% | 10% | 8 µM | 4 µM | 64 µM | 2 µM | 4 µM | 32 µM | hemolysis (FIG. 1) (human erythrocyte; at 500 μg/ml): less than 1%; hemolytic activity (human erythrocyte; concentration of 200 μM or less): almost no hemolytic activity; Growth minimum inhibitory concentration [7]: 4 µM; Growth minimum inhibitory concentration [8]: 4 µM; Growth minimum inhibitory concentration [9]: 8 µM; MIC (S. aureus MRSA 1630): 8 µM
